Laboratory results taken from patent publication US8952024B2, “Herbicidal pyrimidone derivatives” (E I du Pont de Nemours and Company, priority 2009, dated 2015).

Columns and labels:
Assay type in all cases: in vivo
[1] = test system: umbrella sedge (Cyperus difformis); assay: Test B flooded paddy test; settings: for Plant response rating, Flood, Sedge, Umbrella: 250 g ai/ha, flooded paddy test, visual rating on 0 to 100 scale (0 no effect, 100 complete control) after 13 to 15 days; for Plant response rating, Sedge, Umbrella: Flood (flooded paddy test), 13 to 15 days; for Sedge, Umbrella plant response rating: Flood, 31 g ai/ha, scale 0 to 100 (0 no effect, 100 complete control)
How it was run: (§1)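 Each compound is added to standing floodwater (3 cm above soil, maintained) in pots of 2-leaf-stage plants; greenhouse exposure lasts 13–15 d before visual comparison with controls on a 0–100 control scale.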

rice (Oryza sativa) = assay: Test B flooded paddy test; settings: for Plant response rating, Flood, Rice: 250 g ai/ha, flooded paddy test, visual rating on 0 to 100 scale (0 no effect, 100 complete control) after 13 to 15 days; for Plant response rating, Rice: Flood (flooded paddy test), 13 to 15 days; for Rice plant response rating: Flood, 31 g ai/ha, scale 0 to 100 (0 no effect, 100 complete control)
How it was run: as §1

[2] = test system: barnyardgrass (Echinochloa crus-galli); assay: Test B flooded paddy test; settings: for Plant response rating, Flood, Barnyardgrass: 250 g ai/ha, flooded paddy test, visual rating on 0 to 100 scale (0 no effect, 100 complete control) after 13 to 15 days; for Plant response rating, Barnyardgrass: Flood (flooded paddy test), 13 to 15 days; for Barnyardgrass plant response rating: Flood, 31 g ai/ha, scale 0 to 100 (0 no effect, 100 complete control)
How it was run: as §1

[3] = test system: ducksalad (Heteranthera limosa); assay: Test B flooded paddy test; settings: for Plant response rating, Flood, Ducksalad: 250 g ai/ha, flooded paddy test, visual rating on 0 to 100 scale (0 no effect, 100 complete control) after 13 to 15 days; for Plant response rating, Ducksalad: Flood (flooded paddy test), 13 to 15 days; for Ducksalad plant response rating: Flood, 31 g ai/ha, scale 0 to 100 (0 no effect, 100 complete control)
How it was run: as §1

[4] = test system: wheat (Triticum aestivum); assay: Test A pre-/postemergence plant response
How it was run: (§2)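 Plants grown from seed in a loam soil and sand mix received test compounds both as a preemergence soil spray and, at the same time, as a postemergence spray at the one- to two-leaf stage. Injury was judged visually against untreated controls roughly ten days later, 0 meaning no effect and 100 complete control.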

[5] = test system: large crabgrass (Digitaria sanguinalis); assay: Test A pre-/postemergence plant response; settings: for Crabgrass, Large plant response rating: visual injury, 0 to 100 scale (0 no effect, 100 complete control), approx. ten days
How it was run: as §2

corn (Zea mays) = assay: Test A pre-/postemergence plant response; settings: for Corn plant response rating: visual injury, 0 to 100 scale (0 no effect, 100 complete control), approx. ten days
How it was run: as §2

[6] = test system: barnyardgrass (Echinochloa crus-galli); assay: Test A pre-/postemergence plant response; settings: for Barnyardgrass plant response rating: visual injury, 0 to 100 scale (0 no effect, 100 complete control), approx. ten days
How it was run: as §2

[7] = test system: pigweed (Amaranthus retroflexus); assay: Test A pre-/postemergence plant response
How it was run: as §2

[8] = test system: velvetleaf (Abutilon theophrasti); assay: Test A pre-/postemergence plant response
How it was run: as §2

[9] = test system: morningglory (Ipomoea spp.); assay: Test A pre-/postemergence plant response
How it was run: as §2

[10] = test system: giant foxtail (Setaria faberii); assay: Test A pre-/postemergence plant response
How it was run: as §2

[11] = test system: winter barley (Hordeum vulgare); assay: Test B postemergence plant response; settings: Postemergence
How it was run: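 Plants at the 1- to 4-leaf stage (2 to 18 cm tall), grown in pots of peat moss/vermiculite medium with wetting agent and starter nutrients, received postemergence applications of test chemicals. After 13 to 15 days in a greenhouse, injury was rated visually against untreated controls on a 0 (no effect) to 100 (complete control) scale.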

[12] = 62 g ai/ha, scale of 0 to 100 where 0 is no effect and 100 is complete control
[13] = 125 g ai/ha, scale 0 to 100, 0 is no effect, 100 is complete control
[14] = Postemergence, 125 g ai/ha, 0 to 100 scale where 0 is no effect and 100 is complete control
[15] = Postemergence, 500 g ai/ha, visual injury, 0 to 100 scale (0 no effect, 100 complete control), approx. ten days
[16] = Preemergence, 125 g ai/ha, 0 to 100 scale, 0 = no effect, 100 = complete control
[17] = Preemergence, 500 g ai/ha, 0 to 100 scale, 0 = no effect, 100 = complete control
[18] = 31 g ai/ha, 0 to 100 scale (0 no effect, 100 complete control)
[19] = 62 g ai/ha, scale 0 to 100 (0 no effect, 100 complete control)
[20] = 250 g ai/ha, scale 0 to 100 (0 no effect, 100 complete control), 13 to 15 days
[21] = Postemergence, 125 g ai/ha, visual injury, 0 to 100 scale (0 no effect, 100 complete control), approx. ten days
[22] = Preemergence, 125 g ai/ha, 0 to 100 scale where 0 is no effect and 100 is complete control, approximately ten days

## COCCn1c(-c2ccsc2)ncc(C(=O)C2=C(O)C3CCC(C3)C2=O)c1=O (centres unmarked) [Compound 228]
[1]
  Plant response rating, Flood, Sedge, Umbrella: 85
  Sedge, Umbrella plant response rating: 65
[1]; [12]
  Plant response rating, Sedge, Umbrella: 75
[1]; [13]
  Plant response rating, Sedge, Umbrella: 75
Rice (Oryza sativa)
  Plant response rating, Flood, Rice: 60
  Rice plant response rating: 0
Rice (Oryza sativa); [12]
  Plant response rating, Rice: 20
Rice (Oryza sativa); [13]
  Plant response rating, Rice: 35
[2]
  Plant response rating, Flood, Barnyardgrass: 80
  Barnyardgrass plant response rating: 15
[2]; [12]
  Plant response rating, Barnyardgrass: 40
[2]; [13]
  Plant response rating, Barnyardgrass: 75
[3]
  Plant response rating, Flood, Ducksalad: 80
  Ducksalad plant response rating: 40
[3]; [12]
  Plant response rating, Ducksalad: 50
[3]; [13]
  Plant response rating, Ducksalad: 75
[4]; [14]
  Plant response rating, Wheat: 0
[4]; [15]
  Wheat plant response rating: 20
[4]; [16]
  Plant response rating, Wheat: 0
[4]; [17]
  Plant response rating, Wheat: 0
[5]; [14]
  Plant response rating, Crabgrass, Large: 90
[5]; Postemergence, 500 g ai/ha
  Crabgrass, Large plant response rating: 100
[5]; [16]
  Plant response rating, Crabgrass, Large: 100
[5]; [17]
  Plant response rating, Crabgrass, Large: 100
Corn (Zea mays); [14]
  Plant response rating, Corn: 50
Corn (Zea mays); Postemergence, 500 g ai/ha
  Corn plant response rating: 90
Corn (Zea mays); [16]
  Plant response rating, Corn: 0
Corn (Zea mays); [17]
  Plant response rating, Corn: 50
[6]; [14]
  Plant response rating, Barnyardgrass: 90
[6]; Postemergence, 500 g ai/ha
  Barnyardgrass plant response rating: 90
[6]; [16]
  Plant response rating, Barnyardgrass: 40
[6]; [17]
  Plant response rating, Barnyardgrass: 100
[7]; [14]
  Plant response rating, Pigweed: 100
[7]; [15]
  Pigweed plant response rating: 100
[7]; [16]
  Plant response rating, Pigweed: 100
[7]; [17]
  Plant response rating, Pigweed: 100
[8]; [14]
  Plant response rating, Velvetleaf: 100
[8]; [15]
  Velvetleaf plant response rating: 100
[8]; [16]
  Plant response rating, Velvetleaf: 100
[8]; [17]
  Plant response rating, Velvetleaf: 100
[9]; [14]
  Plant response rating, Morningglory: 100
[9]; [15]
  Morningglory plant response rating: 100
[9]; [16]
  Plant response rating, Morningglory: 70
[9]; [17]
  Plant response rating, Morningglory: 80
[10]; [14]
  Plant response rating, Foxtail, Giant: 90
[10]; [15]
  Foxtail, Giant plant response rating: 90
[10]; [16]
  Plant response rating, Foxtail, Giant: 50
[10]; [17]
  Plant response rating, Foxtail, Giant: 90
[11]; [18]
  Plant response rating, Barley: 0
[11]; [19]
  Plant response rating, Barley: 5
[11]; 125 g ai/ha, scale 0 to 100 (0 no effect, 100 complete control)
  Plant response rating, Barley: 40
[11]; [20]
  Plant response rating, Barley: 40

## CCc1ccccc1-n1c(-c2ccccc2)ncc(C(=O)C2=C(O)CCCC2=O)c1=O [Compound 255]
[1]
  Plant response rating, Flood, Sedge, Umbrella: 60
  Sedge, Umbrella plant response rating: 0
[1]; [12]
  Plant response rating, Sedge, Umbrella: 20
[1]; [13]
  Plant response rating, Sedge, Umbrella: 50
Rice (Oryza sativa)
  Plant response rating, Flood, Rice: 0
  Rice plant response rating: 0
Rice (Oryza sativa); [12]
  Plant response rating, Rice: 0
Rice (Oryza sativa); [13]
  Plant response rating, Rice: 0
[2]
  Plant response rating, Flood, Barnyardgrass: 0
  Barnyardgrass plant response rating: 0
[2]; [12]
  Plant response rating, Barnyardgrass: 0
[2]; [13]
  Plant response rating, Barnyardgrass: 0
[3]
  Plant response rating, Flood, Ducksalad: 80
  Ducksalad plant response rating: 0
[3]; [12]
  Plant response rating, Ducksalad: 50
[3]; [13]
  Plant response rating, Ducksalad: 60
[4]; [21]
  Plant response rating, Wheat: 10
[4]; [15]
  Wheat plant response rating: 50
[4]; [22]
  Plant response rating, Wheat: 0
[4]; [17]
  Plant response rating, Wheat: 0
[5]; [14]
  Plant response rating, Crabgrass, Large: 90
[5]; Postemergence, 500 g ai/ha
  Crabgrass, Large plant response rating: 100
[5]; [22]
  Plant response rating, Crabgrass, Large: 20
[5]; [17]
  Plant response rating, Crabgrass, Large: 90
Corn (Zea mays); [14]
  Plant response rating, Corn: 30
Corn (Zea mays); Postemergence, 500 g ai/ha
  Corn plant response rating: 70
Corn (Zea mays); [22]
  Plant response rating, Corn: 0
Corn (Zea mays); [17]
  Plant response rating, Corn: 0
[6]; [14]
  Plant response rating, Barnyardgrass: 90
[6]; Postemergence, 500 g ai/ha
  Barnyardgrass plant response rating: 100
[6]; [22]
  Plant response rating, Barnyardgrass: 10
[6]; [17]
  Plant response rating, Barnyardgrass: 100
[7]; [21]
  Plant response rating, Pigweed: 90
[7]; [15]
  Pigweed plant response rating: 100
[7]; [22]
  Plant response rating, Pigweed: 70
[7]; [17]
  Plant response rating, Pigweed: 90
[8]; [21]
  Plant response rating, Velvetleaf: 100
[8]; [15]
  Velvetleaf plant response rating: 100
[8]; [22]
  Plant response rating, Velvetleaf: 60
[8]; [17]
  Plant response rating, Velvetleaf: 100
[9]; [21]
  Plant response rating, Morningglory: 100
[9]; [15]
  Morningglory plant response rating: 100
[9]; [22]
  Plant response rating, Morningglory: 40
[9]; [17]
  Plant response rating, Morningglory: 60
[10]; [21]
  Plant response rating, Foxtail, Giant: 90
[10]; [15]
  Foxtail, Giant plant response rating: 90
[10]; [22]
  Plant response rating, Foxtail, Giant: 0
[10]; [17]
  Plant response rating, Foxtail, Giant: 50
[11]; [18]
  Plant response rating, Barley: 30
[11]; [19]
  Plant response rating, Barley: 35
[11]; 125 g ai/ha, scale 0 (no effect) to 100 (complete control), 13 to 15 days
  Plant response rating, Barley: 35
[11]; [20]
  Plant response rating, Barley: 50
